Consider one compound from ChEMBL document CHEMBL5584314, “Identification of an m6A Natural Inhibitor, Lobeline, That Reverses Lenvatinib Resistance in Hepatocellular Tumors” (J Nat Prod, 2024).

Common to all, as to type: cell-based
Test [1] deals with N6-adenosine-methyltransferase catalytic subunit (Homo sapiens) (UniProt Q86U44). Briefly: Inhibition of METTL3 in human Huh-7 cells assessed as down regulation of m6A RNA level at 2 uM incubated for 72 hrs by colorimetric analysis.
The target is the same in test [2]. Briefly: Inhibition of METTL3 in human Lenvatinib-resistant Huh7/Len cells assessed as effect on MMP3 mRNA expression level at 2 uM incubated for 72 hrs by RT-PCR analysis.
Test [3] has the same target. Kind of test: Inhibition of METTL3 in human Lenvatinib-resistant Huh7/Len cells assessed as effect on LATS1 mRNA expression level at 2 uM incubated for 72 hrs by RT-PCR analysis.
For test [4] the target is unchanged. Briefly: Inhibition of METTL3 in human Lenvatinib-resistant Huh7/Len cells assessed as effect on FGFR3 mRNA expression level at 2 uM incubated for 72 hrs by RT-PCR analysis.
Test [5] has the same target. Briefly: Inhibition of METTL3 in human Lenvatinib-resistant Huh7/Len cells assessed as effect on MMP13 mRNA expression level at 2 uM incubated for 72 hrs by RT-PCR analysis.
The target is the same in test [6]. Kind of test: Inhibition of METTL3 in human Lenvatinib-resistant Huh7/Len cells assessed as effect on TET1 mRNA expression level at 2 uM incubated for 72 hrs by RT-PCR analysis.
For test [7] the target is unchanged. Briefly: Inhibition of METTL3 in human Lenvatinib-resistant Huh7/Len cells assessed as effect on ADAMTS9 mRNA expression level at 2 uM incubated for 72 hrs by RT-PCR analysis.
The target is the same in test [8]. Kind of test: Inhibition of METTL3 in human Lenvatinib-resistant Huh7/Len cells assessed as effect on IFIT2 mRNA expression level at 2 uM incubated for 72 hrs by RT-PCR analysis.
For test [9] the target is unchanged. Briefly: Inhibition of METTL3 in human Lenvatinib-resistant Huh7/Len cells assessed as effect on EZH2 mRNA expression level at 2 uM incubated for 72 hrs by RT-PCR analysis.
The target is the same in test [10]. Briefly: Inhibition of METTL3 in human Lenvatinib-resistant Huh7/Len cells assessed as effect on IFFO1 mRNA expression level at 2 uM incubated for 72 hrs by RT-PCR analysis.
Test [11] has the same target. Briefly: Inhibition of METTL3 in human Lenvatinib-resistant Huh7/Len cells assessed as effect on NPCL1 mRNA expression level at 2 uM incubated for 72 hrs by RT-PCR analysis.
For test [12] the target is unchanged. Kind of test: Inhibition of METTL3 in human Lenvatinib-resistant Huh7/Len cells assessed as effect on TIBIM6 mRNA expression level at 2 uM incubated for 72 hrs by RT-PCR analysis.
The target is the same in test [13]. Kind of test: Inhibition of METTL3 in human Lenvatinib-resistant Huh7/Len cells assessed as effect on CRB3 mRNA expression level at 2 uM incubated for 72 hrs by RT-PCR analysis.
Test [14] shares this target. Briefly: Inhibition of METTL3 in human Lenvatinib-resistant Huh7/Len cells assessed as effect on DEK mRNA expression level at 2 uM incubated for 72 hrs by RT-PCR analysis.
For test [15] the target is unchanged. Briefly: Inhibition of METTL3 in human Lenvatinib-resistant Huh7/Len cells assessed as effect on MYC mRNA expression level at 2 uM incubated for 72 hrs by RT-PCR analysis.
The target is the same in test [16]. Briefly: Inhibition of METTL3 in human Lenvatinib-resistant Huh7/Len cells assessed as effect on SLC7A11 mRNA expression level at 2 uM incubated for 72 hrs by RT-PCR analysis.
Test [17] shares this target. Briefly: Inhibition of METTL3 in human Lenvatinib-resistant Huh7/Len cells assessed as effect on UCK2 mRNA expression level at 2 uM incubated for 72 hrs by RT-PCR analysis.
Test [18] has the same target. Kind of test: Inhibition of METTL3 in human Lenvatinib-resistant Huh7/Len cells assessed as effect on CTSL mRNA expression level at 2 uM incubated for 72 hrs by RT-PCR analysis.
Test [19] has the same target. Kind of test: Inhibition of METTL3 in human Lenvatinib-resistant Huh7/Len cells assessed as effect on HNF4A mRNA expression level at 2 uM incubated for 72 hrs by RT-PCR analysis.
The target is the same in test [20]. Briefly: Inhibition of METTL3 in human Lenvatinib-resistant Huh7/Len cells assessed as effect on AKT1 mRNA expression level at 2 uM incubated for 72 hrs by RT-PCR analysis.
The target is the same in test [21]. Briefly: Inhibition of METTL3 in human Lenvatinib-resistant Huh7/Len cells assessed as effect on GATA3 mRNA expression level at 2 uM incubated for 72 hrs by RT-PCR analysis.

SMILES strings stand for the structures. The source made the active and inactive calls. The calls are words filed in the database; no cut-off is given here.

Sequence of N6-adenosine-methyltransferase catalytic subunit (Homo sapiens) (Q86U44 whole entry): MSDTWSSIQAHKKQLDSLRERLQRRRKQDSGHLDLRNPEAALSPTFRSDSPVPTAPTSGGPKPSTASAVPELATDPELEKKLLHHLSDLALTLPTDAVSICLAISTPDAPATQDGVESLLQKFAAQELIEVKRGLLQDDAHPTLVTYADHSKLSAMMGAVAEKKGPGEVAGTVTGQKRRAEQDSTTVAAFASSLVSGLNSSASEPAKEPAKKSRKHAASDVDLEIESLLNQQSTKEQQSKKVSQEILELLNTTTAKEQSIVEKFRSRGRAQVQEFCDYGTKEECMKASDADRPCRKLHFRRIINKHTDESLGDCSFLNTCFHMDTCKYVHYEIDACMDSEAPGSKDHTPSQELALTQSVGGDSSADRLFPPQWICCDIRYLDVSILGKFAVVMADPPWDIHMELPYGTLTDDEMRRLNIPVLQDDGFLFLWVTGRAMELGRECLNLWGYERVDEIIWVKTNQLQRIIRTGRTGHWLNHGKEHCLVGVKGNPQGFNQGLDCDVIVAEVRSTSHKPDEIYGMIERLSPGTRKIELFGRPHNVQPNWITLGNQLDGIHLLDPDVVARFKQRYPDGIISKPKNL

Consider `O=C(NCc1cn2cc(CNCC3CCCCC3)ccc2n1)c1cc(=O)n2ccccc2n1`, for which, in test [1], the inhibition was determined as 18%. The inhibition result in [2], in [3], in test [4], in test [5], in test [6] and in [7] was “Active” throughout. The inhibition entry in [8], in test [9], in test [10], in test [11], in test [12] and in test [13] was “Active” throughout. Also, the inhibition result in [14], in test [15], in test [16], in test [17], in test [18] and in test [19] was “Active” in each case. Moreover, the inhibition result in [20] and in test [21] was “Active” throughout.

By inhibition is commonly meant the drop in the measured response relative to a control, in per cent.
